Data: US9056840B2, “Coelenterazine analogues and coelenteramide analogues” (JNC Corporation, priority 2010, dated 2015)
Entries after “also recorded” stand apart in the source; their conditions may differ.

How the values were obtained:
[1] = target: T1, 19 kDa protein from Oplophorus luciferase (Oplophorus gracilirostris, UniProt Q9GV45); assay: Substrate specificity and luminescence activity of the 19 kDa protein from Oplophorus luciferase; format: biochemical; conditions: measured for 60 seconds, coelenterazine = 100
T1 construct: made in house
T1 sequence (Q9GV45 28-196): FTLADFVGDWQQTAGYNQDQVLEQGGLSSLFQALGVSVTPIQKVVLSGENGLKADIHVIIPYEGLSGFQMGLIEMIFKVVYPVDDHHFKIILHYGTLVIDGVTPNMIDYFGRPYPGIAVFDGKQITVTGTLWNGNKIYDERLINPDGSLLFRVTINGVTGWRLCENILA
Procedure: The 19 kDa protein from Oplophorus luciferase was purified by the method described in Inouye, S. and Sasaki, S., Protein Express. Purif. (2007) 56: 261-268 and provided for use.
(§1) After 1 μl of the 19 kDa protein (2.3 mg/ml) from Oplophorus luciferase containing 1 mM DTT was dissolved in 100 μl of 30 mM Tris-HCl (pH 7.6) containing 10 mM EDTA, 1 μl of a solution of coelenterazine or its analogue (1 μg/μl) in ethanol was added to the solution to start the luminescence reaction, and the luminescence activity was measured for 60 seconds on a luminometer luminescencer-PSN AB2200 (manufactured by Atto Co., Ltd.). The luminescence activity was determined by repeating the measurement described above 3 times and expressed in terms of the maximum luminescence intensity (Imax) of luminescence activity.

Renilla luciferase = target: T2, Renilla luciferase (Renilla reniformis, UniProt P27652); assay: Substrate specificity and luminescence activity of Renilla luciferase; format: biochemical; conditions: measured for 10 seconds, coelenterazine = 100
T2 construct: made in house
T2 sequence (P27652 1-311): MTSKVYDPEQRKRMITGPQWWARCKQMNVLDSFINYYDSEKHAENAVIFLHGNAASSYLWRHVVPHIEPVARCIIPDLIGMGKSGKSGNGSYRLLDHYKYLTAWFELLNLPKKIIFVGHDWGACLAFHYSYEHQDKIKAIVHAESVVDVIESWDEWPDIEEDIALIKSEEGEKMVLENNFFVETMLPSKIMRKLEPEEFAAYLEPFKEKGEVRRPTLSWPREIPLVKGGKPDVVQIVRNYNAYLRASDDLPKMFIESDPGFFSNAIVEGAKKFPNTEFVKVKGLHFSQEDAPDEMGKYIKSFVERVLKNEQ
Procedure: Renilla luciferase was purified by the method described in Inouye, S. & Shimomura, O. Biochem. Biophys. Res. Commun. (1997) 233: 349-353, and used for assay.
as §1, with “Renilla luciferase (0.45” for “the 19 kDa protein (2.3”, “mg/ml)” for “mg/ml) from Oplophorus luciferase containing 1 mM DTT”, “reaction. The” for “reaction, and the”, “10” for “60”, “measurement of luminescence activity” for “measurement”

Gaussia luciferase = assay: Substrate specificity and luminescence activity of Gaussia luciferase; format: biochemical; conditions: measured for 10 seconds, coelenterazine = 100
Procedure: Gaussia luciferase was purified by the method described in Japanese Patent Application KOKAI No. 2008-099669 and provided for use. After 1 μl of Gaussia luciferase (0.024 mg/ml) was dissolved in 100 μl of phosphate buffered saline (manufactured by Sigma Inc.) containing 0.01% Tween 20 (manufactured by Sigma Inc.) and 10 mM EDTA, 1 μl of a solution of coelenterazine or its analogue (1 μg/μl) in ethanol was mixed with the solution to start the luminescence reaction. The luminescence activity was measured for 10 seconds on a luminometer luminescencer-PSN AB2200 (manufactured by Atto Co., Ltd.). The luminescence activity was determined by repeating the measurement described above 3 times and expressed in terms of the maximum luminescence intensity (Imax) of luminescence activity.

apoaequorin [2] = target: T3, apoaequorin (Aequorea victoria, UniProt P07164); assay: Luminescence spectra of semi-synthetic aequorins; format: biochemical; conditions: semi-synthetic aequorin, calcium added, 22 to 25° C.
T3 construct: purchased Chisso Corporation
T3 sequence (P07164 other isoform, or with tags, fused parts or gaps with the stated changes): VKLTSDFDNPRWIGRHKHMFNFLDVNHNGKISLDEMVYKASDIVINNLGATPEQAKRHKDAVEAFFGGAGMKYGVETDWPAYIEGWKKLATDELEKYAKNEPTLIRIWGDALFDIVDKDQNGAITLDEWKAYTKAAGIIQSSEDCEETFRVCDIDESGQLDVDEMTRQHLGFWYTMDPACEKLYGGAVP
Procedure: In a quartz cell with light path length of 10 mm, 1 ml of 50 mM Tris-HCl (pH 7.6) containing 1 mM EDTA and 100 μl (100 μg protein) of a solution of the regenerated semi-synthetic aequorin were charged. Next, 100 μl of 50 mM Tris-HCl (pH 7.6) containing 0.1 ml of 10 mM calcium chloride solution was added thereto to start the luminescence reaction. The spectra were measured on a spectrofluorimeter (FP-6500, manufactured by Jasco Co., Ltd.) with the excitation light source turned off. The measurement conditions were bandwidth: 20 nm, response: 0.5 second, scan speed: 2000 nm/min and 22 to 25° C. The luminescence spectra measured were corrected.

apoaequorin [3] = target: T3, apoaequorin; assay: Fluorescence spectra of fluorescent proteins formed from semi-synthetic aequorins by Ca2+; format: physicochemical; conditions: for Maximum fluorescence wavelength λmax (nm) / Relative fluorescence intensity (rlu): fluorescent protein generated by calcium from semi-synthetic aequorin, excitation 330 nm, 25° C.; for fluorescence spectra of fluorescent proteins versus emission spectra of semi-synthetic aequorins, in words: same coelenterazine analogue
Procedure: The fluorescence spectra of novel fluorescent proteins formed by the Ca^2+-triggerd reaction from semi-synthetic aequorins in EXAMPLE 3 were measured at 25° C. in a quartz cell (10 mm light path length) using a Jasco FP-6500 spectrofluorometer (excitation wavelength: 330 nm, emission/excitation bandwidth: 3 nm; response: 0.5 sec, scan speed, 1000 nm/min). The fluorescence spectra measured were corrected.

apoaequorin [4] = target: T3, apoaequorin; assay: Luminescence patterns of semi-synthetic aequorins, half decay time; format: biochemical; conditions: for Half decay time: semi-synthetic aequorin, time in which luminescence becomes half of maximum, patterns measured for 60 seconds
Procedure: A solution of the regenerated semi-synthetic aequorin was diluted to 10-fold with 20 mM Tris-HCl (pH 7.6) containing 0.1% BSA (manufactured by Sigma, Inc.), 0.01 mM EDTA and 150 mM NaCl. The dilution was dispensed into a 96-well microplate (Nunc #236108) at 5 μl/well. The luminescence reaction was triggered by injecting 50 mM Tris-HCl (pH 7.6) containing 50 mM calcium chloride solution at 100 μl/well. The luminescence patterns for 60 seconds were measured to determine half decay time of the luminescence (a time period in which the luminescence becomes half of the maximum luminescence intensity).

apoaequorin [5] = target: T3, apoaequorin; assay: Calcium standard curve with semi-synthetic aequorins; format: biochemical; conditions: FIG. 3; Imax versus calcium concentration
Procedure: In 9 ml of 50 mM Tris-HCl (pH 7.6), 1 ml of 1 g/L calcium carbonate standard solution (manufactured by Wako Pure Chemicals) was diluted to prepare 10^−3 M calcium carbonate solution. One milliliter of the resulting 10^−3 M calcium carbonate solution was taken and added to 9 ml of 50 mM Tris-HCl (pH 7.6) to prepare 10^−4 M calcium carbonate solution. Next, 3 ml of the resulting 10^−4 M calcium carbonate solution was taken and added to 6 ml of 50 mM Tris-HCl (pH 7.6) to prepare […] calcium carbonate solution. One milliliter from the 10^−4 M calcium carbonate solution obtained was added to 9 ml of 50 mM Tris-HCl (pH 7.6) to prepare 10^−5 M calcium carbonate solution. Then, 3 ml of the resulting 10^−5 M calcium carbonate solution was taken and added to 6 ml of 50 mM Tris-HCl (pH 7.6) to prepare 3×10^−5 M calcium carbonate solution. A dilution series was prepared by successively repeating the procedures described above to give the 10^−3 M to 10^−8 M calcium standard solutions.
In 5 ml of 50 mM Tris-HCl (pH 7.6) containing 10 mM DTT and 30 mM EDTA, 5 mg of recombinant apoaequorin (manufactured by Chisso Corporation) was dissolved and 100 μg of coelenterazine analogue dissolved in ethanol in an amount of 1.2-fold equivalent was added to the solution. The mixture was allowed to stand at 4° C. overnight to convert into semi-synthetic aequorin. The resulting semi-synthetic aequorin was concentrated using Amicon Ultra-4 (manufactured by Millipore, Inc., molecular weight cut-off: 10,000) to remove an excessive of coelenterazine analogue. The mixture was then washed 3 times with 3 ml of 30 mM Tris-HCl (pH 7.6) containing 0.05 mM EDTA to give the solution of semi-synthetic aequorin containing 0.05 mM EDTA. This semi-synthetic aequorin solution (2.5 mg/ml) was diluted with 20 mM Tris-HCl (pH 7.6) containing 0.1% BSA (manufactured by Sigma), 0.01 mM EDTA and 150 mM NaCl.
The calcium standard solution prepared as above was dispensed into a 96-well microplate (Nunc #236108) at 50 μl/well and 10 μl of the diluted semi-synthetic aequorin solution was injected into 50 μl of various concentration of calcium standard solution. The luminescence intensity was measured for 60 seconds on a luminescence plate reader Centro LB960 (manufactured by Berthold) and expressed in terms of the maximum intensity (Imax) of luminescence. The luminescence intensity was measured on each semi-synthetic aequorin in the same procedures. Semi-synthetic aequorins for practically use were chosen by the maximum intensity (Imax) of luminescence and the calcium standard curve of semi-synthetic aequorin was prepared.

| SMILES | Luminescence activity Imax (%) [1] [%] | Luminescence activity Imax (%) (Renilla luciferase) | Luminescence activity Imax (%) (Gaussia luciferase) | Maximum luminescence wavelength λmax (nm) (apoaequorin [2]) | Maximum fluorescence wavelength λmax (nm) (apoaequorin [3]) | Relative fluorescence intensity (rlu) (apoaequorin [3]) | Half decay time (apoaequorin [4]) [s] | calcium standard curve with semi-synthetic aequorin, in words (apoaequorin [5]) | fluorescence spectra of fluorescent proteins versus emission spectra of semi-synthetic aequorins, in words (apoaequorin [3]) | half decay time of luminescence compared to coelenterazine (native aequorin), in words (apoaequorin [4]) |
| --- | --- | --- | --- | --- | --- | --- | --- | --- | --- | --- |
| Oc1ccc(Cc2nc3c(Cc4ccccc4)nc(-c4ccc(O)cc4)cn3c2O)cc1 [Coelenterazine] | 100.0 | 100.0 | 100.0 | 472.5 | 473.0 | 63.3 | 0.81 |  |  |  |
| O=c1c(Cc2ccc(O)cc2)nc2c(-c3ccccc3)[nH]c(-c3ccc(O)cc3)cn1-2 [Compound 3a, 2-(4-Hydroxybenzyl)-6-(4-hydroxyphenyl)-8-phenylimidazo[1,2-a]pyrazin-3(7H)-one] | 0.4 | 0.00 | 0.00 | 494.0 | 501.5 | 118.1 | 15.7 | calcium standard curve can be prepared | different luminescence spectra and fluorescence spectra | markedly prolonged; also recorded: longer half decay time |
| O=c1c(Cc2ccc(O)cc2)nc2c(/C=C/c3ccccc3)[nH]c(-c3ccc(O)cc3)cn1-2 [Compound 3b] | 0.07 | 0.00 | 0.01 | 447.0 | 580.0 | 10.3 | 0.96 | calcium standard curve can be prepared | markedly different; also recorded: different luminescence spectra and fluorescence spectra | longer half decay time |
| O=c1c(Cc2ccc(O)cc2)nc2c(-c3cccc4ccccc34)[nH]c(-c3ccc(O)cc3)cn1-2 [Compound 3d, 2-(4-Hydroxybenzyl)-6-(4-hydroxyphenyl)-8-(naphthalen-1-yl)imidazo[1,2-a]pyrazin-3(7H)-one] | 0.3 | 0.00 | 0.00 | 480.0 | 482.5 | 61.8 | 1.10 | calcium standard curve can be prepared |  | longer half decay time |
| O=c1c(Cc2ccc(O)cc2)nc2c(-c3ccc4ccccc4c3)[nH]c(-c3ccc(O)cc3)cn1-2 [Compound 3e, 2-(4-Hydroxybenzyl)-6-(4-hydroxyphenyl)-8-(naphthalen-2-yl)imidazo[1,2-a]pyrazin-3(7H)-one] | 0.07 | 0.00 | 0.00 | 507.0 | 468.5 | 28.0 | 3.42 | calcium standard curve can be prepared | markedly different; also recorded: different luminescence spectra and fluorescence spectra | markedly prolonged; also recorded: longer half decay time |
| O=c1c(Cc2ccc(O)cc2)nc2c(-c3cccs3)[nH]c(-c3ccc(O)cc3)cn1-2 [Compound 3f, 2-(4-Hydroxybenzyl)-6-(4-hydroxyphenyl)-8-(thiophen-2-yl)imidazo[1,2-α]pyrazin-3(7H)-one] | 0.1 | 0.00 | 0.00 | 515.0 | 525.0 | 38.5 | >60 | calcium standard curve can be prepared | different luminescence spectra and fluorescence spectra | markedly prolonged; also recorded: longer half decay time |
